Our source for the TGI values is PubChem BioAssay (NCI).

Holding throughout (test): growth of human tumour cells (NCI), 48 h
The test system of assay [1] is NCI-H460 lung.
For assay [2], the system named is MCF7 breast.
For assay [3], the system named is SF-539 CNS.
Assay [4] relates to MALME-3M melanoma.
Assay [5] has as its system NCI-H522 lung.
Assay [6] concerns HOP-92 NSCLC.
The subject of assay [7] is A549 NSCLC.
The subject of assay [8] is SW-620 colon.
Assay [9] concerns LOX IMVI melanoma.
For assay [10], the system named is NCI/ADR-RES ovarian.
Assay [11] has as its system SNB-75 CNS.
The subject of assay [12] is HL-60(TB) leukemia.
The subject of assay [13] is SK-OV-3 ovarian.
For assay [14], the system named is SNB-19 CNS.
Assay [15] deals with SF-295 CNS.
Assay [16] concerns DMS 114 small cell lung.
Assay [17] deals with SK-MEL-2 melanoma.
In assay [18] the test system is OVCAR-3 ovarian.
Assay [19] relates to ACHN renal.
In assay [20] the test system is M14 melanoma.

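The compound was tested at five concentrations on cells cultured in 96-well plates, with a 48-hour exposure period. TGI marks complete inhibition of growth.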 Where a SMILES comes first, the peptide text is derived from it. [ ]: non-standard residue; d: D form. The star is where a group is joined. Boc = CC(C)(C)OC(=O)*; Lac = C[CH](O)C(=O)O; OBn = c1ccc(CO*)cc1

For the compound `N/C(=N\N=C/c1ccc(O)c(O)c1O)NO`, the TGI in assay [1] is 32.4 µM; in assay [2], 32.9 µM; in [3], over 100 µM; in assay [4] it was over 100 µM; in assay [5], 52.9 µM; in assay [6], over 100 µM. For the same compound, the TGI in assay [7] was over 100 µM; in [8], 39.1 µM; in assay [9] it was 33.9 µM; in assay [10], 40.3 µM; in assay [11] it was over 46.5 µM; in assay [12], 41.4 µM. Moreover, the TGI was over 100 µM in assay [13]; over 100 µM in [14]; over 40 µM in assay [15]; 54.8 µM in [16]; over 69.8 µM in assay [17]; 51 µM in assay [18].

For the compound `O=C1N(Cl)C(=O)C(c2ccc(Cl)cc2)(c2ccc(Cl)cc2)N1Cl`, the TGI in [1], in [3], in [19], in assay [4], in assay [5] and in assay [6] was over 100 µM throughout. Also, the TGI in assay [7], in [8], in assay [11], in assay [12], in assay [13] and in assay [14] was over 100 µM each time. For the same compound, the TGI in assay [20], in assay [15], in assay [16], in assay [17] and in [18] was over 100 µM in each case.

Consider `NC(CCCCCCCCCCP(=O)(O)O)C(=O)O` (centres undefined), for which the TGI in assay [1], in assay [2], in assay [3], in assay [19], in assay [5] and in assay [6] was over 100 µM each time. Further, the TGI in assay [7], in assay [8], in assay [9], in assay [10], in assay [11] and in assay [12] was over 100 µM throughout. The TGI in [13], in assay [14], in assay [20], in assay [15], in assay [17] and in assay [18] was over 100 µM each time.

With `CC(OC(=O)C(Cc1ccccc1)NC(=O)C(Cc1ccccc1)NC(=O)OC(C)(C)C)C(=O)OCc1ccccc1` (stereo not drawn) (Boc-Phe-Phe-[Lac]-OBn; configuration not given here), the TGI was over 100 µM in assay [1]; 54.6 µM in assay [2]; over 100 µM in assay [4]; over 100 µM in assay [5]; over 100 µM in assay [6]; over 100 µM in assay [10]. In addition, the TGI in assay [11], in assay [12], in [13], in assay [14], in assay [20] and in assay [15] was over 100 µM throughout. Moreover, the TGI in assay [17] and in assay [18] was over 100 µM throughout.

With `CC1(C)CCc2ccc(OCCC(=O)O)cc2O1`, the TGI in [1], in assay [3], in assay [19], in assay [4], in assay [5] and in [6] was over 100 µM throughout. Also, the TGI in [7], in assay [8], in assay [9], in assay [11], in assay [12] and in assay [13] was over 100 µM each time. Also, the TGI in [20], in assay [15], in assay [16], in assay [17] and in assay [18] was over 100 µM throughout.
